Reference: ChEMBL document CHEMBL3885881, “DrugMatrix”

Species: Rattus norvegicus
Assay: DrugMatrix - Regimen: Daily Repeat
Format: toxicity, organism-based, Sprague-Dawley
Parameters: regimen Daily Repeat, gender Male, age 6-8 weeks
Conditions: in vivo, po, route oral GAVAGE, […]; for ABSOLUTE BASOPHIL / ABSOLUTE EOSINOPHIL / ABSOLUTE LYMPHOCYTE / ABSOLUTE MONOCYTE / ABSOLUTE SEGMENTED NEUTROPHIL / BASOPHIL / EOSINOPHIL / ERYTHROCYTE COUNT / HEMATOCRIT / HEMOGLOBIN / LEUKOCYTE COUNT / LYMPHOCYTE / MEAN CORPUSCULAR HEMOGLOBIN / MEAN CORPUSCULAR HEMOGLOBIN CONCENTRATION / MEAN CORPUSCULAR VOLUME / MONOCYTE / NEUTROPHIL / NUCLEATED RED BLOOD CELLS / PLATELET COUNT: tissue Blood; for ALANINE AMINOTRANSFERASE / ALBUMIN / ALKALINE PHOSPHATASE / ASPARTATE AMINOTRANSFERASE / BLOOD UREA NITROGEN / CARBON DIOXIDE / CHLORIDE / CHOLESTEROL / CREATINE PHOSPHOKINASE / CREATININE / GLUCOSE / LACTATE DEHYDROGENASE / LIPASE / PHOSPHORUS / POTASSIUM / SODIUM / TOTAL BILIRUBIN / TOTAL PROTEIN / URIC ACID: tissue Plasma
[1] = 0 mg/kg, 72 h, dose level Control, time 3 day
[2] = 0 mg/kg, 120 h, dose level Control, time 5 day
[3] = 30 mg/kg, 72 h, dose level Low, time 3 day

CCCCC(=O)N(Cc1ccc(-c2ccccc2-c2nnn[nH]2)cc1)[C@H](C(=O)O)C(C)C
ABSOLUTE BASOPHIL [1]: 0 CELLS/uL
ABSOLUTE EOSINOPHIL [1]: 13.67 CELLS/uL
ABSOLUTE LYMPHOCYTE [1]: 10069.5 CELLS/uL
ABSOLUTE MONOCYTE [1]: 50 CELLS/uL
ABSOLUTE SEGMENTED NEUTROPHIL [1]: 516.83 CELLS/uL
BASOPHIL [1]: 0%
EOSINOPHIL [1]: 0.17%
ERYTHROCYTE COUNT [1]: 5.44 x10E6/uL
HEMATOCRIT [1]: 33.88%
HEMOGLOBIN [1]: 13.23 G/DL
LEUKOCYTE COUNT [1]: 10.65 x10E3/uL
LYMPHOCYTE [1]: 94.67%
MEAN CORPUSCULAR HEMOGLOBIN [1]: 24.37 pg
MEAN CORPUSCULAR HEMOGLOBIN CONCENTRATION [1]: 39.05 G/DL
MEAN CORPUSCULAR VOLUME [1]: 62.38 fL
MONOCYTE [1]: 0.67%
NEUTROPHIL [1]: 4.5%
NUCLEATED RED BLOOD CELLS [1]: 0.33 /100WBC
PLATELET COUNT [1]: 414.5 x10E3/uL
ALANINE AMINOTRANSFERASE [1]: 72 u/L
ALBUMIN [1]: 3.75 G/DL
ALKALINE PHOSPHATASE [1]: 375 u/L
ASPARTATE AMINOTRANSFERASE [1]: 87.5 u/L
BLOOD UREA NITROGEN [1]: 14 mg/dL
CARBON DIOXIDE [1]: 27.5 mmol/L
CHLORIDE [1]: 95.83 MEQ/L
CHOLESTEROL [1]: 68.5 mg/dL
CREATINE PHOSPHOKINASE [1]: 284.33 u/L
CREATININE [1]: 0.16 mg/dL
GLUCOSE [1]: 156.67 mg/dL
LACTATE DEHYDROGENASE [1]: 101.83 u/L
LIPASE [1]: 9.67 u/L
PHOSPHORUS [1]: 10.33 mg/dL
POTASSIUM [1]: 5.22 MEQ/L
SODIUM [1]: 137.67 MEQ/L
TOTAL BILIRUBIN [1]: 0.13 mg/dL
TOTAL PROTEIN [1]: 5.43 G/DL
URIC ACID [1]: 0.8 mg/dL
ABSOLUTE BASOPHIL [2]: 0 CELLS/uL
ABSOLUTE EOSINOPHIL [2]: 20.67 CELLS/uL
ABSOLUTE LYMPHOCYTE [2]: 11518.33 CELLS/uL
ABSOLUTE MONOCYTE [2]: 47 CELLS/uL
ABSOLUTE SEGMENTED NEUTROPHIL [2]: 614 CELLS/uL
BASOPHIL [2]: 0%
EOSINOPHIL [2]: 0.17%
ERYTHROCYTE COUNT [2]: 5.61 x10E6/uL
HEMATOCRIT [2]: 34.25%
HEMOGLOBIN [2]: 13.38 G/DL
LEUKOCYTE COUNT [2]: 12.2 x10E3/uL
LYMPHOCYTE [2]: 94.33%
MEAN CORPUSCULAR HEMOGLOBIN [2]: 23.83 pg
MEAN CORPUSCULAR HEMOGLOBIN CONCENTRATION [2]: 39.08 G/DL
MEAN CORPUSCULAR VOLUME [2]: 61.03 fL
MONOCYTE [2]: 0.33%
NEUTROPHIL [2]: 5.17%
NUCLEATED RED BLOOD CELLS [2]: 0 /100WBC
PLATELET COUNT [2]: 941.83 x10E3/uL
ALANINE AMINOTRANSFERASE [2]: 68.83 u/L
ALBUMIN [2]: 4.12 G/DL
ALKALINE PHOSPHATASE [2]: 492.67 u/L
ASPARTATE AMINOTRANSFERASE [2]: 83.33 u/L
BLOOD UREA NITROGEN [2]: 14 mg/dL
CARBON DIOXIDE [2]: 37 mmol/L
CHLORIDE [2]: 98.67 MEQ/L
CHOLESTEROL [2]: 56.5 mg/dL
CREATINE PHOSPHOKINASE [2]: 167.33 u/L
CREATININE [2]: 0.17 mg/dL
GLUCOSE [2]: 157.5 mg/dL
LACTATE DEHYDROGENASE [2]: 104.83 u/L
LIPASE [2]: 10 u/L
PHOSPHORUS [2]: 10.43 mg/dL
POTASSIUM [2]: 5.46 MEQ/L
SODIUM [2]: 143.87 MEQ/L
TOTAL BILIRUBIN [2]: 0.17 mg/dL
TOTAL PROTEIN [2]: 5.72 G/DL
URIC ACID [2]: 0.85 mg/dL
ABSOLUTE BASOPHIL [3]: 0 CELLS/uL
ABSOLUTE EOSINOPHIL [3]: 32 CELLS/uL
ABSOLUTE LYMPHOCYTE [3]: 7448.67 CELLS/uL
ABSOLUTE MONOCYTE [3]: 0 CELLS/uL
ABSOLUTE SEGMENTED NEUTROPHIL [3]: 586 CELLS/uL
BASOPHIL [3]: 0%
EOSINOPHIL [3]: 0.33%
ERYTHROCYTE COUNT [3]: 5.55 x10E6/uL
HEMATOCRIT [3]: 33.7%
HEMOGLOBIN [3]: 13.27 G/DL
LEUKOCYTE COUNT [3]: 8.07 x10E3/uL
LYMPHOCYTE [3]: 92.33%
MEAN CORPUSCULAR HEMOGLOBIN [3]: 23.9 pg
MEAN CORPUSCULAR HEMOGLOBIN CONCENTRATION [3]: 39.33 G/DL
MEAN CORPUSCULAR VOLUME [3]: 60.7 fL
MONOCYTE [3]: 0%
NEUTROPHIL [3]: 7.33%
NUCLEATED RED BLOOD CELLS [3]: 0.67 /100WBC
PLATELET COUNT [3]: 891 x10E3/uL
ALANINE AMINOTRANSFERASE [3]: 67.67 u/L
ALBUMIN [3]: 3.93 G/DL
ALKALINE PHOSPHATASE [3]: 446.33 u/L
ASPARTATE AMINOTRANSFERASE [3]: 94.33 u/L
BLOOD UREA NITROGEN [3]: 14.33 mg/dL
CARBON DIOXIDE [3]: 25 mmol/L
CHLORIDE [3]: 95.5 MEQ/L
CHOLESTEROL [3]: 77.67 mg/dL
CREATINE PHOSPHOKINASE [3]: 130 u/L
CREATININE [3]: 0.19 mg/dL
GLUCOSE [3]: 147 mg/dL
LACTATE DEHYDROGENASE [3]: 98 u/L
LIPASE [3]: 11.33 u/L
PHOSPHORUS [3]: 9.5 mg/dL
POTASSIUM [3]: 5.71 MEQ/L
SODIUM [3]: 138.1 MEQ/L
TOTAL BILIRUBIN [3]: 0.1 mg/dL
TOTAL PROTEIN [3]: 5.53 G/DL
URIC ACID [3]: 0.57 mg/dL
